Measured values from PMC8699473, “An Easily Expandable Multi-Drug LC-MS Assay for the Simultaneous Quantification of 57 Oral Antitumor Drugs in Human Plasma” (Cancers, 2021).

Legend:
[1] = Freeze-thaw stability in spiked pooled human plasma; format: physicochemical
[2] = Autosampler stability of ready for injection samples; format: physicochemical, human
[3] = design: method as in supplement references [1-55] as printed per drug; conditions: minimum steady-state blood plasma concentration after multiple dose administration; ref supplement references [1-55] per drug; cited from earlier work
[4] = Long-term stability in spiked pooled human plasma
[5] = Short-term stability in spiked pooled human plasma (bench-top, 4 °C, 56 °C)

## CCOc1cc2ncc(C#N)c(Nc3ccc(OCc4ccccn4)c(Cl)c3)c2cc1NC(=O)/C=C/CN(C)C [Neratinib]
[1]; validation standard 2xLLOV
  Freeze-Thaw Accuracy [%]: 82.2%
[1]; validation standard LLOV
  Freeze-Thaw Accuracy [%]: 64.7%
[1]; validation standard MOV
  Freeze-Thaw Accuracy [%]: 88.9%
[1]; validation standard ULOV
  Freeze-Thaw Accuracy [%]: 87.2%
[2]; validation standard 2xLLOV
  Autosampler (24h, 4°C) Accuracy [%]: 95.7%
  Autosampler (72h, 4°C) Accuracy [%]: 100.1%
[2]; validation standard LLOV
  Autosampler (24h, 4°C) Accuracy [%]: 75.2%
  Autosampler (72h, 4°C) Accuracy [%]: 73.8%
[2]; validation standard MOV
  Autosampler (24h, 4°C) Accuracy [%]: 103.1%
  Autosampler (72h, 4°C) Accuracy [%]: 100.5%
[2]; validation standard ULOV
  Autosampler (24h, 4°C) Accuracy [%]: 93.3%
  Autosampler (72h, 4°C) Accuracy [%]: 96.0%
[3]
  cmin: 52.6 ng/mL
[4]; validation standard 2xLLOV
  Long-term stability, 1 month, -20°C Accuracy [%]: 79.9%
  Long-term stability, 1 month, -80°C Accuracy [%]: 84.9%
  Long-term stability, 2 month, -20°C Accuracy [%]: 67.5%
  Long-term stability, 2 month, -80°C Accuracy [%]: 94.6%
  Long-term stability, 3 month, -20°C Accuracy [%]: 70.3%
  Long-term stability, 3 month, -80°C Accuracy [%]: 90.2%
  Long-term stability, 6 weeks, 4°C, without daylight Accuracy [%]: 7.4%
[4]; validation standard LLOV
  Long-term stability, 1 month, -20°C Accuracy [%]: 66.9%
  Long-term stability, 1 month, -80°C Accuracy [%]: 71.8%
  Long-term stability, 2 month, -20°C Accuracy [%]: 77.1%
  Long-term stability, 2 month, -80°C Accuracy [%]: 88.3%
  Long-term stability, 3 month, -20°C Accuracy [%]: 50.3%
  Long-term stability, 3 month, -80°C Accuracy [%]: 81.4%
[4]; validation standard MOV
  Long-term stability, 1 month, -20°C Accuracy [%]: 82.9%
  Long-term stability, 1 month, -80°C Accuracy [%]: 84.6%
  Long-term stability, 2 month, -20°C Accuracy [%]: 81.2%
  Long-term stability, 2 month, -80°C Accuracy [%]: 92.9%
  Long-term stability, 3 month, -20°C Accuracy [%]: 79.5%
  Long-term stability, 3 month, -80°C Accuracy [%]: 92.5%
  Long-term stability, 6 weeks, 4°C, without daylight Accuracy [%]: 10.0%
[4]; validation standard ULOV
  Long-term stability, 1 month, -20°C Accuracy [%]: 79.7%
  Long-term stability, 1 month, -80°C Accuracy [%]: 78.2%
  Long-term stability, 2 month, -20°C Accuracy [%]: 82.8%
  Long-term stability, 2 month, -80°C Accuracy [%]: 88.3%
  Long-term stability, 3 month, -20°C Accuracy [%]: 75.5%
  Long-term stability, 3 month, -80°C Accuracy [%]: 91.8%
  Long-term stability, 6 weeks, 4°C, without daylight Accuracy [%]: 8.5%
[5]; validation standard 2xLLOV
  Short-time stability (1h, 56°C) Accuracy [%]: -7.9%
  Short-time stability (24h, 4°C, without daylight) Accuracy [%]: 79.9%
  Short-time stability (24h, RT, with daylight) Accuracy [%]: 23.2%
  Short-time stability (24h, RT, without daylight) Accuracy [%]: 25.4%
[5]; validation standard LLOV
  Short-time stability (1h, 56°C) Accuracy [%]: -88.6%
  Short-time stability (24h, 4°C, without daylight) Accuracy [%]: 65.9%
  Short-time stability (24h, RT, with daylight) Accuracy [%]: -37.5%
  Short-time stability (24h, RT, without daylight) Accuracy [%]: -39.1%
[5]; validation standard MOV
  Short-time stability (1h, 56°C) Accuracy [%]: 26.0%
  Short-time stability (24h, 4°C, without daylight) Accuracy [%]: 89.7%
  Short-time stability (24h, RT, with daylight) Accuracy [%]: 37.9%
  Short-time stability (24h, RT, without daylight) Accuracy [%]: 39.2%
[5]; validation standard ULOV
  Short-time stability (1h, 56°C) Accuracy [%]: 21.9%
  Short-time stability (24h, 4°C, without daylight) Accuracy [%]: 81.3%
  Short-time stability (24h, RT, with daylight) Accuracy [%]: 28.5%
  Short-time stability (24h, RT, without daylight) Accuracy [%]: 31.5%

## CNCc1ccc(-c2[nH]c3cc(F)cc4c3c2CCNC4=O)cc1 [Rucaparib]
[1]; validation standard 2xLLOV
  Freeze-Thaw Accuracy [%]: 93.7%
[1]; validation standard LLOV
  Freeze-Thaw Accuracy [%]: 104.4%
[1]; validation standard MOV
  Freeze-Thaw Accuracy [%]: 97.8%
[1]; validation standard ULOV
  Freeze-Thaw Accuracy [%]: 95.5%
[2]; validation standard 2xLLOV
  Autosampler (24h, 4°C) Accuracy [%]: 98.1%
  Autosampler (72h, 4°C) Accuracy [%]: 96.4%
[2]; validation standard LLOV
  Autosampler (24h, 4°C) Accuracy [%]: 104.5%
  Autosampler (72h, 4°C) Accuracy [%]: 104.1%
[2]; validation standard MOV
  Autosampler (24h, 4°C) Accuracy [%]: 104.6%
  Autosampler (72h, 4°C) Accuracy [%]: 103.8%
[2]; validation standard ULOV
  Autosampler (24h, 4°C) Accuracy [%]: 100.1%
  Autosampler (72h, 4°C) Accuracy [%]: 102.4%
[3]
  cmin: 1754 ng/mL
[4]; validation standard 2xLLOV
  Long-term stability, 1 month, -20°C Accuracy [%]: 95.4%
  Long-term stability, 1 month, -80°C Accuracy [%]: 89.7%
  Long-term stability, 2 month, -20°C Accuracy [%]: 100.7%
  Long-term stability, 2 month, -80°C Accuracy [%]: 99.7%
  Long-term stability, 3 month, -20°C Accuracy [%]: 95.9%
  Long-term stability, 3 month, -80°C Accuracy [%]: 94.7%
  Long-term stability, 6 weeks, 4°C, without daylight Accuracy [%]: 93.1%
[4]; validation standard LLOV
  Long-term stability, 1 month, -20°C Accuracy [%]: 104.7%
  Long-term stability, 1 month, -80°C Accuracy [%]: 102.1%
  Long-term stability, 2 month, -20°C Accuracy [%]: 115.1%
  Long-term stability, 2 month, -80°C Accuracy [%]: 112.2%
  Long-term stability, 3 month, -20°C Accuracy [%]: 109.6%
  Long-term stability, 3 month, -80°C Accuracy [%]: 108.0%
  Long-term stability, 6 weeks, 4°C, without daylight Accuracy [%]: 104.4%
[4]; validation standard MOV
  Long-term stability, 1 month, -20°C Accuracy [%]: 98.5%
  Long-term stability, 1 month, -80°C Accuracy [%]: 95.5%
  Long-term stability, 2 month, -20°C Accuracy [%]: 104.6%
  Long-term stability, 2 month, -80°C Accuracy [%]: 102.1%
  Long-term stability, 3 month, -20°C Accuracy [%]: 101.6%
  Long-term stability, 3 month, -80°C Accuracy [%]: 97.2%
  Long-term stability, 6 weeks, 4°C, without daylight Accuracy [%]: 103.5%
[4]; validation standard ULOV
  Long-term stability, 1 month, -20°C Accuracy [%]: 99.8%
  Long-term stability, 1 month, -80°C Accuracy [%]: 94.8%
  Long-term stability, 2 month, -20°C Accuracy [%]: 104.3%
  Long-term stability, 2 month, -80°C Accuracy [%]: 102.7%
  Long-term stability, 3 month, -20°C Accuracy [%]: 100.6%
  Long-term stability, 3 month, -80°C Accuracy [%]: 98.3%
  Long-term stability, 6 weeks, 4°C, without daylight Accuracy [%]: 100.2%
[5]; validation standard 2xLLOV
  Short-time stability (1h, 56°C) Accuracy [%]: 56.7%
  Short-time stability (24h, 4°C, without daylight) Accuracy [%]: 94.0%
  Short-time stability (24h, RT, with daylight) Accuracy [%]: 94.3%
  Short-time stability (24h, RT, without daylight) Accuracy [%]: 95.8%
[5]; validation standard LLOV
  Short-time stability (1h, 56°C) Accuracy [%]: 60.9%
  Short-time stability (24h, 4°C, without daylight) Accuracy [%]: 106.8%
  Short-time stability (24h, RT, with daylight) Accuracy [%]: 100.0%
  Short-time stability (24h, RT, without daylight) Accuracy [%]: 99.7%
[5]; validation standard MOV
  Short-time stability (1h, 56°C) Accuracy [%]: 52.2%
  Short-time stability (24h, 4°C, without daylight) Accuracy [%]: 102.0%
  Short-time stability (24h, RT, with daylight) Accuracy [%]: 100.5%
  Short-time stability (24h, RT, without daylight) Accuracy [%]: 102.1%
[5]; validation standard ULOV
  Short-time stability (1h, 56°C) Accuracy [%]: 46.1%
  Short-time stability (24h, 4°C, without daylight) Accuracy [%]: 96.9%
  Short-time stability (24h, RT, with daylight) Accuracy [%]: 98.9%
  Short-time stability (24h, RT, without daylight) Accuracy [%]: 99.1%
